Values of other authors in paper PMC9026741 (Bioorganic chemistry, 2020).

Target: T1, Nrp1 (Homo sapiens, UniProt O14786)
T1 sequence (O14786 274-586): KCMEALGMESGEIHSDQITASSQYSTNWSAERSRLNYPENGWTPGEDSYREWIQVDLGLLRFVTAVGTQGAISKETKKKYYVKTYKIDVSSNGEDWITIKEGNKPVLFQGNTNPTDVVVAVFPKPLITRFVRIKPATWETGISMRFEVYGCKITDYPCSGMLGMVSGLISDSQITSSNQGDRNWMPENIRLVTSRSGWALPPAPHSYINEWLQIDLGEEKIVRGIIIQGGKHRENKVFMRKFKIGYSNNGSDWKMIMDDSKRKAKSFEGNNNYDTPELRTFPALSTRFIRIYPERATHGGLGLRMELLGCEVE
Conditions: Nrp1 over Nrp2

ATWLPPR
preference for Nrp1: two-fold preference for Nrp1
